Legend:
Conditions in all cases: spray application
Triticum aestivum [1] = assay: In vivo analyses Part B: drought stress, appearance versus stressed control plants in categories; set-up: key: 0: no positive effect; +: slight positive effect; ++: clear positive effect; +++: strong positive effect
Procedure: (§1) Seeds of monocotyledonous and dicotyledonous crop plants were sown in sandy loam in plastic pots, covered with soil or sand and cultivated in a greenhouse under good growth conditions. The test plants are treated at the early leaf stage (BBCH10-BBCH13). To assure uniform water supply before commencement of stress, the potted plants were supplied with water by dam irrigation prior to substance application. The inventive compounds were first formulated as wettable powders (WP) or dissolved in a solvent mixture. The further dilution was effected with water supplemented with 0.2% wetting agent (e.g. agrotin). The finished spray liquor was sprayed onto the green parts of the plant at an equivalent water application rate of 600 l/ha. Substance application was followed immediately by stress treatment of the plants. Drought stress was induced by gradual drying out under the following conditions: “Day”: 14 hours with illumination at ˜26-30° C. “Night”: 10 hours without illumination at ˜18-20° C. The duration of the respective stress phases was guided mainly by the condition of the stressed control plants. It was ended (by re-irrigating and transfer to a greenhouse with good growth conditions) as soon as irreversible damage was observed on the stressed control plants. The end of the stress phase was followed by an about 4-7-day recovery phase, during which the plants were once again kept under good growth conditions in a greenhouse. The duration of the recovery phase was guided mainly by when the trial plants had attained a state which enabled visual scoring of potential effects, and was therefore variable. Once this juncture had been reached, the appearance of the plants treated with test substances was recorded in comparison to the stressed control plants by the following categories: • 0 no positive effect • + slight positive effect • ++ clear positive effect • +++ strong positive effect In order to rule out any influence on the effects observed by any fungicidal or insecticidal action of the test compounds, it was additionally ensured that the tests proceeded without fungal infection or insect infestation. The values reported in tables B-1 and B-2 below are mean values of the results from at least three repeats. Effects of selected compounds of the general formula (I) under drought stress according to the following tables B-1 and B-2: […]

Brassica napus [2] = assay: In vivo analyses: drought stress, visual scoring of damage, efficacy EF
Procedure: (§2) Seeds of monocotyledonous and dicotyledonous crop plants were sown in sandy loam in wood-fiber or plastic pots, covered with soil or sand and cultivated in a greenhouse under good growth conditions. The trial plants were treated at the early leaf stage (BBCH10-BBCH13). To assure uniform water supply before commencement of stress, the potted plants were supplied with water by dam irrigation prior to substance application. The inventive compounds formulated in the form of wettable powders (WP) were sprayed onto the green parts of the plants as an aqueous suspension at an equivalent water application rate of 600 I/ha with addition of 0.2% wetting agent (e.g. agrotin). Substance application was followed immediately by stress treatment of the plants. For this purpose, the wood-fiber pots were transferred in plastic inserts in order to prevent them from subsequently drying out too quickly. Drought stress was induced by gradual drying out under the following conditions: “Day”: 14 hours with illumination at ˜26-30° C. “Night”: 10 hours without illumination at ˜18-20° C. The duration of the respective stress phases was guided mainly by the condition of the stressed control plants. It was ended (by re-irrigating and transfer to a greenhouse with good growth conditions) as soon as irreversible damage was observed on the stressed control plants. The end of the stress phase was followed by an about 4-7-day recovery phase, during which the plants were once again kept under good growth conditions in a greenhouse. The duration of the recovery phase was guided mainly by when the trial plants had attained a state which enabled visual scoring of potential effects, and is therefore variable. Once this juncture was reached, the intensities of damage were scored visually in comparison to untreated, unstressed controls of the same age. The damage intensity was at first assessed in percent. These values were then used to calculate the efficacy of the test compounds by the following formula: [formula] EF: Efficacy DIs: Damage intensity of the stressed control plants DIt: Damage intensity of the stressed plants treated with test compound The values reported in tables A-1 to A-3 below are mean values from at least one trial with at least two repeats, showing the effects of selected compounds of the general formula (I) under drought stress on various crop plants.

Brassica napus [3] = assay: In vivo analyses Part B: drought stress, appearance versus stressed control plants in categories; set-up: key: 0: no positive effect; +: slight positive effect; ++: clear positive effect; +++: strong positive effect
Procedure: as §1

Zea mays = assay: In vivo analyses: drought stress, visual scoring of damage, efficacy EF
Procedure: as §2

Triticum aestivum [4] = assay: as above
Procedure: as §2

In the case of `COc1ccccc1C(=O)N(Cc1ccc(F)cc1F)N1CCCC1` [A9-15], the “Effect (TRZAS)” value (Triticum aestivum [1]; 25 g/ha) is reported as “+”.
In the case of `O=C(c1ccncc1)N(Cc1ccccc1Cl)N1CCOCC1` [C7-1], the “EF [%] (BRSNS)” value (Brassica napus [2]; 2.5 g/ha) is reported as greater than 5%.
For `N#Cc1ccccc1CN(C(=O)c1cccc2nnsc12)N1CCCC1` [A14-61], the “Effect (BRSNS)” value (Brassica napus [3]; 250 g/ha) was “+” and the “Effect (TRZAS)” value (Triticum aestivum [1]; 25 g/ha) was “+”.
In the case of `CN1CCN(N(Cc2ccccn2)C(=O)c2ccccc2C(F)(F)F)CC1` [A12-21, N—(N-Methylpyridazin-1-yl)-N-(pyridin-2-ylmethyl)-2-(trifluoromethyl)-benzamide], the “Effect (BRSNS)” value (Brassica napus [3]; 250 g/ha) is reported as “+”.
With `COC1CCCN(N(Cc2nccc(Cl)c2Cl)C(=O)c2ccccc2C(F)(F)F)C1` (stereo not drawn) [A13-40] the “Effect (TRZAS)” value (Triticum aestivum [1]; 250 g/ha) was “+”.
In the case of `N#Cc1ccccc1CN(C(=O)c1ccncc1)N1CCCCC1` [C4-61], the “EF [%] (ZEAMX)” value (Zea mays; 250 g/ha) is reported as greater than 5% and the “EF [%] (TRZAS)” value (Triticum aestivum [4]; 25 g/ha) is reported as greater than 5%.
For `O=C(c1ccccc1Cl)N(Cc1ccc(F)cc1F)N1CCCC1` [A7-15], the “Effect (BRSNS)” value (Brassica napus [3]; 250 g/ha) was “+” and the “Effect (TRZAS)” value (Triticum aestivum [1]; 25 g/ha) was “+”.
For `O=C(c1ccccc1C(F)(F)F)N(Cc1ccc2ccccc2n1)N1CCCC1` [A2-122], the “EF [%] (ZEAMX)” value (Zea mays; 250 g/ha) was greater than 5%, the “EF [%] (BRSNS)” value (Brassica napus [2]; 250 g/ha) was greater than 5% and the “EF [%] (TRZAS)” value (Triticum aestivum [4]; 250 g/ha) was greater than 5%.
In the case of `O=C(c1cnccc1C(F)(F)F)N(Cc1ccc(Cl)nc1)N1CCCC1` [B2-94], the “Effect (TRZAS)” value (Triticum aestivum [1]; 25 g/ha) is reported as “+”.
With `COC1CCCN(N(Cc2ccccc2Cl)C(=O)c2ccccc2C(F)(F)F)C1` (stereo not drawn) [A13-1] the “Effect (BRSNS)” value (Brassica napus [3]; 250 g/ha) was “+” and the “Effect (TRZAS)” value (Triticum aestivum [1]; 250 g/ha) was “+”.
In the case of `COc1c(C)cnc(CN(C(=O)c2ccc(F)cc2C(F)(F)F)N2CCCC2)c1C` [A6-37], the “EF [%] (BRSNS)” value (Brassica napus [2]; 2.5 g/ha) is reported as greater than 5%.
`COC1CCCN(N(Cc2cccc(C#N)c2)C(=O)c2ccncc2)C1` (stereo not drawn) [C8-62] was tested, and the “EF [%] (ZEAMX)” value (Zea mays; 250 g/ha) was greater than 5% and the “EF [%] (BRSNS)” value (Brassica napus [2]; 2.5 g/ha) was greater than 5%.
In the case of `O=C(c1cnccc1C(F)(F)F)N(Cc1ccccc1F)N1CCOCC1` [B5-11], the “Effect (BRSNS)” value (Brassica napus [3]; 250 g/ha) is reported as “+”.
With `COC1CCCN(N(Cc2ccccc2C#N)C(=O)c2cnccc2C(F)(F)F)C1` (stereo not drawn) [B7-61] the “Effect (TRZAS)” value (Triticum aestivum [1]; 250 g/ha) was “+”.
With `COC1CCCN(N(Cc2ccccn2)C(=O)c2ccccc2C(F)(F)F)C1` (stereo not drawn) [A13-21] the “Effect (TRZAS)” value (Triticum aestivum [1]; 250 g/ha) was “+”.
`O=C(c1ccc(F)cc1C(F)(F)F)N(Cc1ccccc1Cl)N1CCCC1` [A6-1] was tested, and the “EF [%] (ZEAMX)” value (Zea mays; 250 g/ha) was greater than 5% and the “EF [%] (TRZAS)” value (Triticum aestivum [4]; 25 g/ha) was greater than 5%.
With `N#Cc1ccccc1CN(C(=O)c1ccnnc1)N1CCCC1` [F1-61] the “Effect (BRSNS)” value (Brassica napus [3]; 25 g/ha) was “+” and the “Effect (TRZAS)” value (Triticum aestivum [1]; 100 g/ha) was “+”.
With `COc1c(C)cnc(CN(C(=O)c2ccccc2C(F)(F)F)N2CCCC2)c1C` [A2-37] the “EF [%] (ZEAMX)” value (Zea mays; 25 g/ha) was greater than 5% and the “EF [%] (TRZAS)” value (Triticum aestivum [4]; 250 g/ha) was greater than 5%.
For `N#Cc1ccccc1CN(C(=O)c1cnccc1C(F)(F)F)N1CCCC1` [B2-61, N-(2-Cyanobenzyl)-N-(pyrrolidin-1-yl)-4-(trifluoromethyl)nicotinamide], the “EF [%] (ZEAMX)” value (Zea mays; 250 g/ha) was greater than 5%, the “EF [%] (BRSNS)” value (Brassica napus [2]; 25 g/ha) was greater than 5% and the “EF [%] (TRZAS)” value (Triticum aestivum [4]; 25 g/ha) was greater than 5%.
`CC(c1ccc(F)cc1)N(C(=O)c1cnccc1C(F)(F)F)N1CCCC1` (stereo not drawn) [B2-159] was tested, and the “Effect (BRSNS)” value (Brassica napus [3]; 250 g/ha) was “+” and the “Effect (TRZAS)” value (Triticum aestivum [1]; 250 g/ha) was “+”.

— US20180206491A1, “SUBSTITUTED CYCLIC ARYL AND HETEROARYL CARBOXYLIC ACID HYDRAZIDES OR SALTS THEREOF AND USE THEREOF TO INCREASE STRESS TOLERANCE IN PLANTS” (Bayer CropScience Aktiengesellschaft, priority 2015, published 2018)
